PubChem BioAssay (NCI)
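Tested at 5 concentrations; 48 h exposure; 96-well plates; endpoints linearly interpolated, else capped at highest concentration. GI50 is the concentration that inhibits growth by half. TGI marks complete inhibition of growth.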

Experiments:
Assay in all cases: NCI-60 cell line screen, 48 h
MOLT-4 leukemia = test system: MOLT-4 leukemia
OVCAR-5 ovarian = test system: OVCAR-5 ovarian
A498 renal = test system: A498 renal
SN12C renal = test system: SN12C renal
ACHN renal = test system: ACHN renal
SW-620 colon = test system: SW-620 colon
HT29 colon = test system: HT29 colon
SK-MEL-5 melanoma = test system: SK-MEL-5 melanoma
COLO 205 colon = test system: COLO 205 colon
RXF 393 renal = test system: RXF 393 renal

Cc1nn(-c2ccccc2)c2nc3c(nc12)C1=NCCN1C(c1ccc(Cl)cc1)N3 (stereo not given)
GI50 (MOLT-4 leukemia): 2.38 µM
TGI (MOLT-4 leukemia): 6.01 µM
GI50 (OVCAR-5 ovarian): 11.4 µM
TGI (OVCAR-5 ovarian): 24.3 µM
GI50 (A498 renal): 4.01 µM
TGI (A498 renal): 17.9 µM
GI50 (SN12C renal): 11.4 µM
TGI (SN12C renal): 25.2 µM
GI50 (ACHN renal): 3.62 µM
TGI (ACHN renal): 13.2 µM
GI50 (SW-620 colon): 1.9 µM
TGI (SW-620 colon): 3.96 µM
GI50 (HT29 colon): 2.5 µM
TGI (HT29 colon): 5.96 µM
GI50 (SK-MEL-5 melanoma): 1.57 µM
TGI (SK-MEL-5 melanoma): 3.12 µM
GI50 (COLO 205 colon): 1.84 µM
TGI (COLO 205 colon): 3.36 µM
GI50 (RXF 393 renal): 1.56 µM
TGI (RXF 393 renal): 3.07 µM

O=C1OC(c2ccccc2)=N/C1=C\c1cc(Cl)ccc1Cl
TGI (MOLT-4 leukemia): 53.7 µM
TGI (OVCAR-5 ovarian): > 100 µM
TGI (A498 renal): > 100 µM
TGI (SN12C renal): > 100 µM
TGI (ACHN renal): > 100 µM
TGI (SW-620 colon): > 100 µM
TGI (HT29 colon): > 100 µM
TGI (SK-MEL-5 melanoma): > 100 µM
TGI (COLO 205 colon): > 100 µM
TGI (RXF 393 renal): > 100 µM

N#C/C(=C1C=C/C(=N\O)C(Cl)=C\1)c1ccccc1
GI50 (MOLT-4 leukemia): 2.91 µM
TGI (MOLT-4 leukemia): 9.02 µM
GI50 (OVCAR-5 ovarian): 3.71 µM
TGI (OVCAR-5 ovarian): 13.7 µM
GI50 (A498 renal): 3.34 µM
TGI (A498 renal): 64.7 µM
GI50 (SN12C renal): 3.19 µM
TGI (SN12C renal): 13 µM
GI50 (ACHN renal): 0.733 µM
TGI (ACHN renal): 11.6 µM
GI50 (SW-620 colon): 1.42 µM
TGI (SW-620 colon): 12.9 µM
GI50 (HT29 colon): 3.35 µM
TGI (HT29 colon): 10.9 µM
GI50 (SK-MEL-5 melanoma): 3.05 µM
TGI (SK-MEL-5 melanoma): 10.3 µM
GI50 (COLO 205 colon): 7.52 µM
TGI (COLO 205 colon): 24.4 µM
GI50 (RXF 393 renal): 4.72 µM
TGI (RXF 393 renal): 18.2 µM

COc1cc(C2CC(c3ccccc3)=NN2C(C)=O)cc(OC)c1OC (stereo not given)
GI50 (MOLT-4 leukemia): 5.5 µM
TGI (MOLT-4 leukemia): > 100 µM
GI50 (OVCAR-5 ovarian): 70.7 µM
TGI (OVCAR-5 ovarian): > 100 µM
GI50 (A498 renal): 4.79 µM
TGI (A498 renal): > 100 µM
GI50 (SN12C renal): 5.23 µM
TGI (SN12C renal): > 100 µM
GI50 (ACHN renal): 5.88 µM
TGI (ACHN renal): > 100 µM
GI50 (SW-620 colon): 3.04 µM
TGI (SW-620 colon): > 100 µM
GI50 (HT29 colon): 2.57 µM
TGI (HT29 colon): > 100 µM
GI50 (SK-MEL-5 melanoma): 2.87 µM
TGI (SK-MEL-5 melanoma): > 100 µM
GI50 (COLO 205 colon): 2.92 µM
TGI (COLO 205 colon): > 41 µM
GI50 (RXF 393 renal): 4.14 µM
TGI (RXF 393 renal): > 48.2 µM

COC(=O)C(Cc1ccccc1)NC(=O)Cn1ccnc1[N+](=O)[O-] (stereo not given)
TGI (MOLT-4 leukemia): > 100 µM
TGI (OVCAR-5 ovarian): > 100 µM
TGI (A498 renal): > 100 µM
TGI (SN12C renal): > 100 µM
TGI (ACHN renal): > 100 µM
TGI (SW-620 colon): > 100 µM
TGI (HT29 colon): > 100 µM
TGI (SK-MEL-5 melanoma): > 100 µM
TGI (COLO 205 colon): > 100 µM
TGI (RXF 393 renal): > 100 µM

CC(C)NC(=O)OCc1c(COC(=O)NC(C)C)c(-c2ccc(Cl)c(Cl)c2)n2c1CCC2
TGI (MOLT-4 leukemia): 34.8 µM
TGI (OVCAR-5 ovarian): 64.1 µM
TGI (A498 renal): 43.3 µM
TGI (SN12C renal): 68.2 µM
TGI (ACHN renal): 43.6 µM
TGI (SW-620 colon): 71.7 µM
TGI (HT29 colon): 64.1 µM
TGI (SK-MEL-5 melanoma): > 81.7 µM
TGI (COLO 205 colon): 71.3 µM
TGI (RXF 393 renal): 46.9 µM

N=c1n(Cc2ccccc2)c(N)cc(=O)n1Cc1ccccc1
GI50 (MOLT-4 leukemia): 1.24 µM
TGI (MOLT-4 leukemia): 5.38 µM
GI50 (OVCAR-5 ovarian): 4.27 µM
TGI (OVCAR-5 ovarian): 14.9 µM
GI50 (A498 renal): 5.04 µM
TGI (A498 renal): 47.5 µM
GI50 (SN12C renal): 1.34 µM
TGI (SN12C renal): 18.1 µM
GI50 (ACHN renal): 0.747 µM
TGI (ACHN renal): 5.25 µM
GI50 (SW-620 colon): 3.05 µM
TGI (SW-620 colon): 11.1 µM
GI50 (HT29 colon): 3.81 µM
TGI (HT29 colon): 12.8 µM
GI50 (SK-MEL-5 melanoma): 1.9 µM
TGI (SK-MEL-5 melanoma): 3.95 µM
GI50 (COLO 205 colon): 3.97 µM
TGI (COLO 205 colon): 13.8 µM
GI50 (RXF 393 renal): 1.87 µM
TGI (RXF 393 renal): 5.71 µM

Cc1ccc(C(=O)C#Cc2c[nH]c(=O)[nH]c2=O)cc1
TGI (MOLT-4 leukemia): 23.8 µM
TGI (OVCAR-5 ovarian): 33 µM
TGI (A498 renal): 28 µM
TGI (SN12C renal): 16.2 µM
TGI (ACHN renal): 29 µM
TGI (SW-620 colon): 20.9 µM
TGI (HT29 colon): 49.5 µM
TGI (SK-MEL-5 melanoma): 26.5 µM
TGI (COLO 205 colon): 44.3 µM
TGI (RXF 393 renal): 12.4 µM

CCn1c(-c2nonc2N)nc2cncc(C(=O)NCCNC)c21
GI50 (MOLT-4 leukemia): > 25 µM
TGI (MOLT-4 leukemia): > 25 µM
GI50 (OVCAR-5 ovarian): 0.441 µM
TGI (OVCAR-5 ovarian): > 25 µM
GI50 (A498 renal): 0.834 µM
TGI (A498 renal): > 19.8 µM
GI50 (SN12C renal): > 25 µM
TGI (SN12C renal): > 25 µM
GI50 (ACHN renal): 11.2 µM
TGI (ACHN renal): > 25 µM
GI50 (SW-620 colon): 4.07 µM
TGI (SW-620 colon): > 25 µM
GI50 (HT29 colon): 0.817 µM
TGI (HT29 colon): > 25 µM
GI50 (SK-MEL-5 melanoma): > 16 µM
TGI (SK-MEL-5 melanoma): > 25 µM
GI50 (COLO 205 colon): 1.15 µM
TGI (COLO 205 colon): 8.51 µM
GI50 (RXF 393 renal): 2.57 µM
TGI (RXF 393 renal): > 25 µM

COc1ccc2c(c1)/C(=C\c1c(Cl)n(C)c3ccccc13)C(=O)N2
GI50 (MOLT-4 leukemia): 1.7 µM
TGI (MOLT-4 leukemia): > 22 µM
GI50 (OVCAR-5 ovarian): 3.94 µM
TGI (OVCAR-5 ovarian): 15.3 µM
GI50 (A498 renal): 0.611 µM
TGI (A498 renal): 4.31 µM
GI50 (SN12C renal): 2.57 µM
TGI (SN12C renal): 20.1 µM
GI50 (ACHN renal): 1.6 µM
TGI (ACHN renal): 16.2 µM
GI50 (SW-620 colon): 1.13 µM
TGI (SW-620 colon): 17.1 µM
GI50 (HT29 colon): 0.574 µM
TGI (HT29 colon): > 100 µM
GI50 (SK-MEL-5 melanoma): 0.76 µM
TGI (SK-MEL-5 melanoma): 7 µM
GI50 (COLO 205 colon): 0.721 µM
TGI (COLO 205 colon): 4.36 µM
GI50 (RXF 393 renal): 1.53 µM
TGI (RXF 393 renal): 8.23 µM

CCCCCCCCCCCCCCCCCC(=O)OCC(COC1OC(CS(=O)(=O)O)C(O)C(O)C1O)OC(=O)CCCCCCCCCCCCCCCCC (stereo not given)
TGI (MOLT-4 leukemia): > 100 µM
TGI (OVCAR-5 ovarian): > 100 µM
TGI (A498 renal): > 100 µM
TGI (SN12C renal): > 100 µM
TGI (ACHN renal): > 100 µM
TGI (SW-620 colon): > 100 µM
TGI (HT29 colon): > 100 µM
TGI (SK-MEL-5 melanoma): > 100 µM
TGI (COLO 205 colon): > 100 µM
TGI (RXF 393 renal): > 100 µM
